Results as given in patent publication US12594276B2, “Inhibitors of human immunodeficiency virus replication” (ViiV Healthcare UK (No.5) Limited, priority 2024, dated 2026).
Read-outs that look alike come from different tables or passages of the source.

Columns and labels:
[1] = Compound cytotoxicity, XTT-based colorimetric assay; type: cell-based; settings: human
Outline: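 Cells seeded as for the antiviral assay but left uninfected (MT2). Compound exposure continued to day 4. XTT reagent added and colour read. CC50 calculated.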

[2] = tested on: recombinant NL4-3 virus (nef section replaced with Renilla luciferase gene) in MT-2 cells; assay: HIV cell culture assay (antiviral activity, luciferase readout); type: cell-based; settings: Renilla, NL43, MT-2 cells infected for 4-5 days with recombinant NL4-3 Renilla luciferase virus
Outline: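 Reporter virus is produced in 293T cells and its titer set in MT-2 cells by luciferase activity. MT-2 cells are then infected in the presence of serially diluted compound for 4-5 days. Luciferase is quantified and EC50 fitted to the median effect equation.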

[3] = uninfected MT2 cells, day 4, XTT, read-out: CC50

Compound	CC50 at 4 days [1, 3]	EC50 [2]	CC50 at 4 days [1]
Cc1cc(C2CCC(F)(F)CC2)nc2nc([C@H](Cc3cc(F)cc(F)c3)NC(=O)Cn3nc(C(F)F)c4c3C(F)(F)[C@@H]3C[C@H]43)n(-c3ccc(Cl)c4c(NS(C)(=O)=O)nn(CCOC(F)F)c34)c(=O)c12 (atropisomer, axis not shown; (P)) [Example 94, N-[(1S)-1-[(3P)-3-{4-chloro-1-[2-(difluoromethoxy)ethyl]-3-methanesulfonamido-1H-indazol-7-yl}-7-(4,4-difluorocyclohexyl)-5-methyl-4-oxo-3H,4H-pyrido[2,3-d]pyrimidin-2-yl]-2-(3,5-difluorophenyl)ethyl]-2-[(2S,4R)-9-(difluoromethyl)-5,5-difluoro-7,8-diazatricyclo[4.3.0.0^2,^4]nona-1(6),8-dien-7-yl]acetamide]	> 50 nM	0.023 nM	
Cc1cc(C2CCC(F)(F)CC2)nc2nc([C@H](Cc3cc(F)cc(F)c3)NC(=O)Cn3nc(C(F)F)c4c3C(F)(F)[C@@H]3C[C@H]43)n(-c3ccc(Cl)c4c(NS(C)(=O)=O)nn(CCN5CC6C(C5)C6(F)F)c34)c(=O)c12 (stereo partly drawn) [Example 312, N-[(1S)-1-[(3P)-3-[4-chloro-1-(2-{6,6-difluoro-3-azabicyclo[3.1.0]hexan-3-yl}ethyl)-3-methanesulfonamido-1H-indazol-7-yl]-7-(4,4-difluorocyclohexyl)-5-methyl-4-oxo-3H,4H-pyrido[2,3-d]pyrimidin-2-yl]-2-(3,5-difluorophenyl)ethyl]-2-[(2S,4R)-9-(difluoromethyl)-5,5-difluoro-7,8-diazatricyclo[4.3.0.0^2,^4]nona-1(6),8-dien-7-yl]acetamide]	> 50 nM	0.021 nM	
CCc1cc(C2CCC(F)(F)CC2)nc2nc([C@H](Cc3cc(F)cc(F)c3)NC(=O)Cn3nc(C4CC4)c4c3C(F)(F)[C@@H]3C[C@H]43)n(-c3ccc(Cl)c4c(NS(C)(=O)=O)nn(CCCOC)c34)c(=O)c12 (atropisomer, axis not shown; (P)) [Example 639, N-[(1S)-1-[(3P)-3-[4-chloro-3-methanesulfonamido-1-(3-methoxypropyl)-1H-indazol-7-yl]-7-(4,4-difluorocyclohexyl)-5-ethyl-4-oxo-3H,4H-pyrido[2,3-d]pyrimidin-2-yl]-2-(3,5-difluorophenyl)ethyl]-2-[(2S,4R)-9-cyclopropyl-5,5-difluoro-7,8-diazatricyclo[4.3.0.0^2,^4]nona-1(6),8-dien-7-yl]acetamide]	> 50 nM	0.025 nM	
COCCCn1nc(NS(C)(=O)=O)c2c(Cl)ccc(-n3c([C@H](Cc4cc(F)cc(F)c4)NC(=O)Cn4nc(C(F)F)c5c4C(F)(F)[C@@H]4C[C@H]54)nc4nc(C5CCC(F)(F)CC5)cc(NCCN5CCCC5)c4c3=O)c21 (atropisomer, axis not shown; (P)) [Example 429, N-[(1S)-1-[(3P)-3-[4-chloro-3-methanesulfonamido-1-(3-methoxypropyl)-1H-indazol-7-yl]-7-(4,4-difluorocyclohexyl)-4-oxo-5-{[2-(pyrrolidin-1-yl)ethyl]amino}-3H,4H-pyrido[2,3-d]pyrimidin-2-yl]-2-(3,5-difluorophenyl)ethyl]-2-[(2S,4R)-9-(difluoromethyl)-5,5-difluoro-7,8-diazatricyclo[4.3.0.0^2,^4]nona-1(6),8-dien-7-yl]acetamide]	> 20 nM	0.019 nM	
Cc1cc(C2(F)CCC(F)(F)CC2)nc2nc([C@H](Cc3cc(F)cc(F)c3)NC(=O)Cn3nc(C4CC4)c4c3C[C@@H]3C[C@H]43)n(-c3ccc(Cl)c4c(NS(C)(=O)=O)nn(C[C@@H](C)N5C[C@H](F)C[C@H](F)C5)c34)c(=O)c12 (relative stereo) [Example 702, N-[(1S)-1-[(3P)-3-{4-chloro-1-[(2R)-2-[(3R,5S)-3,5-difluoropiperidin-1-yl]propyl]-3-methanesulfonamido-1H-indazol-7-yl}-5-methyl-4-oxo-7-(1,4,4-trifluorocyclohexyl)-3H,4H-pyrido[2,3-d]pyrimidin-2-yl]-2-(3,5-difluorophenyl)ethyl]-2-[(2R*,4R*)-9-cyclopropyl-7,8-diazatricyclo[4.3.0.0^2,^4]nona-1(6),8-dien-7-yl]acetamide]	> 20 nM	0.016 nM	
Cc1cc(C2CCC(F)(F)CC2)nc2nc([C@H](Cc3cc(F)cc(F)c3)NC(=O)Cn3nc(C4CC4)c4c3C[C@@H]3C[C@H]43)n(-c3ccc(Cl)c4c(NS(C)(=O)=O)nn(CCN5CCC(C)(F)CC5)c34)c(=O)c12 (atropisomer, axis not shown; (P)) [Example 278, N-[(1S)-1-[(3P)-3-{4-chloro-1-[2-(4-fluoro-4-methylpiperidin-1-yl)ethyl]-3-methanesulfonamido-1H-indazol-7-yl}-7-(4,4-difluorocyclohexyl)-5-methyl-4-oxo-3H,4H-pyrido[2,3-d]pyrimidin-2-yl]-2-(3,5-difluorophenyl)ethyl]-2-[(2S,4S)-9-cyclopropyl-7,8-diazatricyclo[4.3.0.0^2,^4]nona-1(6),8-dien-7-yl]acetamide]	> 50 nM	0.005 nM	
CS(=O)(=O)Nc1nn(CCN2CCC(F)CC2)c2c(-n3c([C@H](Cc4cc(F)cc(F)c4)NC(=O)Cn4nc(C(F)F)c5c4C(F)(F)[C@@H]4C[C@H]54)nc4nc(C5CCC(F)(F)CC5)ccc4c3=O)ccc(Cl)c12 (atropisomer, axis not shown; (P)) [Example 166, N-[(1S)-1-[(3P)-3-{4-chloro-1-[2-(4-fluoropiperidin-1-yl)ethyl]-3-methanesulfonamido-1H-indazol-7-yl}-7-(4,4-difluorocyclohexyl)-4-oxo-3H,4H-pyrido[2,3-d]pyrimidin-2-yl]-2-(3,5-difluorophenyl)ethyl]-2-[(2S,4R)-9-(difluoromethyl)-5,5-difluoro-7,8-diazatricyclo[4.3.0.0^2,^4]nona-1(6),8-dien-7-yl]acetamide]	> 50 nM	0.019 nM	
Cc1cc(C2(F)CCC(F)(F)CC2)nc2nc([C@H](Cc3cc(F)cc(F)c3)NC(=O)Cn3nc(C4CC4)c4c3C[C@@H]3C[C@H]43)n(-c3ccc(Cl)c4c(NS(C)(=O)=O)nn([C@H](C)C(=O)N5CC(C)(C)OC(C)(C)C5)c34)c(=O)c12 (relative stereo) [Example 750, N-[(1S)-1-[(3P)-3-{4-chloro-3-methanesulfonamido-1-[(2R)-1-oxo-1-(2,2,6,6-tetramethylmorpholin-4-yl)propan-2-yl]-1H-indazol-7-yl}-5-methyl-4-oxo-7-(1,4,4-trifluorocyclohexyl)-3H,4H-pyrido[2,3-d]pyrimidin-2-yl]-2-(3,5-difluorophenyl)ethyl]-2-[(2R*,4R*)-9-cyclopropyl-7,8-diazatricyclo[4.3.0.0^2,^4]nona-1(6),8-dien-7-yl]acetamide]	> 20 nM	0.028 nM	
COCCCn1nc(NS(C)(=O)=O)c2c(Cl)ccc(-n3c([C@H](Cc4cc(F)cc(F)c4)NC(=O)Cn4nc(C(F)F)c5c4C(F)(F)[C@@H]4C[C@H]54)nc4nc(C5CCC(F)(F)CC5)cc(NCCN5CCC5)c4c3=O)c21 (atropisomer, axis not shown; (P)) [Example 500, N-[(1S)-1-[(3P)-5-{[2-(azetidin-1-yl)ethyl]amino}-3-[4-chloro-3-methanesulfonamido-1-(3-methoxypropyl)-1H-indazol-7-yl]-7-(4,4-difluorocyclohexyl)-4-oxo-3H,4H-pyrido[2,3-d]pyrimidin-2-yl]-2-(3,5-difluorophenyl)ethyl]-2-[(2S,4R)-9-(difluoromethyl)-5,5-difluoro-7,8-diazatricyclo[4.3.0.0^2,^4]nona-1(6),8-dien-7-yl]acetamide]	> 20 nM	0.049 nM	
Cc1cc(C2CCC(F)(F)CC2)nc2nc([C@H](Cc3cc(F)cc(F)c3)NC(=O)Cn3nc(C(F)F)c4c3C(F)(F)[C@@H]3C[C@H]43)n(-c3ccc(Cl)c4c(NS(C)(=O)=O)nn(CCOC(C)(C)C)c34)c(=O)c12 (atropisomer, axis not shown; (P)) [Example 129, N-[(1S)-1-[(3P)-3-{1-[2-(tert-butoxy)ethyl]-4-chloro-3-methanesulfonamido-1H-indazol-7-yl}-7-(4,4-difluorocyclohexyl)-5-methyl-4-oxo-3H,4H-pyrido[2,3-d]pyrimidin-2-yl]-2-(3,5-difluorophenyl)ethyl]-2-[(2S,4R)-9-(difluoromethyl)-5,5-difluoro-7,8-diazatricyclo[4.3.0.0^2,^4]nona-1(6),8-dien-7-yl]acetamide]	> 50 nM	0.024 nM	
C[C@@H]1CN(CCn2nc(NS(C)(=O)=O)c3c(Cl)ccc(-n4c([C@H](Cc5cc(F)cc(F)c5)NC(=O)Cn5nc(C(F)F)c6c5C(F)(F)[C@@H]5C[C@H]65)nc5nc(C6CCC(F)(F)CC6)ccc5c4=O)c32)CCO1 (atropisomer, axis not shown; (P)) [Example 360]	> 50 nM	0.01 nM	
COCCCn1nc(NS(C)(=O)=O)c2c(Cl)ccc(-n3c([C@H](Cc4cc(F)cc(F)c4)NC(=O)Cn4nc(C(F)F)c5c4C(F)(F)[C@@H]4C[C@H]54)nc4nc(C5CCC(F)(F)CC5)cc(NCCN5C[C@@H](C)O[C@@H](C)C5)c4c3=O)c21 (atropisomer, axis not shown; (P)) [Example 475]	> 20 nM	0.004 nM	
Cc1cc(C2(F)CCC(F)(F)CC2)nc2nc([C@H](Cc3cc(F)cc(F)c3)NC(=O)Cn3nc(C4CC4)c4c3C[C@@H]3C[C@H]43)n(-c3ccc(Cl)c4c(NS(C)(=O)=O)nn(CCN5CC6CC(C5)O6)c34)c(=O)c12 [Example 591, N-[(1S)-1-[(3P)-3-[4-chloro-3-methanesulfonamido-1-(2-{6-oxa-3-azabicyclo[3.1.1]heptan-3-yl}ethyl)-1H-indazol-7-yl]-5-methyl-4-oxo-7-(1,4,4-trifluorocyclohexyl)-3H,4H-pyrido[2,3-d]pyrimidin-2-yl]-2-(3,5-difluorophenyl)ethyl]-2-[(2S,4S)-9-cyclopropyl-7,8-diazatricyclo[4.3.0.0^2,^4]nona-1(6),8-dien-7-yl]acetamide]		0.006 nM	> 20 nM
